From PubChem BioAssay (NCI)
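Protocol summary: plate cells (96-well), add compound at 5 concentrations, incubate 48 h, interpolate endpoints linearly. GI50 marks 50% less growth. TGI is the concentration that stops growth completely.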

How the values were obtained:
Assay in all cases: NCI anticancer screen, dose series, 48 h
NCI-H226 lung = system: NCI-H226 lung
NCI/ADR-RES ovarian = system: NCI/ADR-RES ovarian
786-0 renal = system: 786-0 renal
EKVX NSCLC = system: EKVX NSCLC
HL-60(TB) leukemia = system: HL-60(TB) leukemia
SNB-19 CNS = system: SNB-19 CNS
A498 renal = system: A498 renal
SN12C renal = system: SN12C renal
DU-145 prostate = system: DU-145 prostate
SK-OV-3 ovarian = system: SK-OV-3 ovarian
HS 578T breast = system: HS 578T breast
NCI-H522 lung = system: NCI-H522 lung
MALME-3M melanoma = system: MALME-3M melanoma
A549 NSCLC = system: A549 NSCLC
SK-MEL-2 melanoma = system: SK-MEL-2 melanoma
HCT-15 colon = system: HCT-15 colon
NCI-H460 lung = system: NCI-H460 lung
CAKI-1 renal = system: CAKI-1 renal
SW-620 colon = system: SW-620 colon
HCT-116 colon = system: HCT-116 colon
LOX IMVI melanoma = system: LOX IMVI melanoma
T-47D breast = system: T-47D breast
SNB-75 CNS = system: SNB-75 CNS
RXF 393 renal = system: RXF 393 renal
HCC-2998 colon = system: HCC-2998 colon
HOP-92 NSCLC = system: HOP-92 NSCLC
ACHN renal = system: ACHN renal
U251 CNS = system: U251 CNS
SK-MEL-5 melanoma = system: SK-MEL-5 melanoma
NCI-H23 lung = system: NCI-H23 lung
RPMI-8226 leukemia = system: RPMI-8226 leukemia
OVCAR-3 ovarian = system: OVCAR-3 ovarian
MCF7 breast = system: MCF7 breast
MDA-MB-231 breast = system: MDA-MB-231 breast
SK-MEL-28 melanoma = system: SK-MEL-28 melanoma
CCRF-CEM leukemia = system: CCRF-CEM leukemia
OVCAR-5 ovarian = system: OVCAR-5 ovarian
TK-10 renal = system: TK-10 renal
IGROV1 ovarian = system: IGROV1 ovarian
SF-539 CNS = system: SF-539 CNS
PC-3 prostate = system: PC-3 prostate
SF-268 CNS = system: SF-268 CNS
SR leukemia = system: SR leukemia
OVCAR-8 ovarian = system: OVCAR-8 ovarian
COLO 205 colon = system: COLO 205 colon
UO-31 renal = system: UO-31 renal
M14 melanoma = system: M14 melanoma
MDA-MB-435 = system: MDA-MB-435
BT-549 breast = system: BT-549 breast
K-562 leukemia = system: K-562 leukemia
HT29 colon = system: HT29 colon
MOLT-4 leukemia = system: MOLT-4 leukemia
SF-295 CNS = system: SF-295 CNS
UACC-62 melanoma = system: UACC-62 melanoma
KM12 colon = system: KM12 colon
OVCAR-4 ovarian = system: OVCAR-4 ovarian
HOP-62 NSCLC = system: HOP-62 NSCLC
UACC-257 melanoma = system: UACC-257 melanoma

Molecule `Cc1cc(O)c(C2=NN(c3ccc(S(N)(=O)=O)cc3)C(c3ccc(Cl)cc3)C2)c(C)c1Cl` (stereo unspecified) has a GI50 (NCI-H226 lung) of 10.5 µM, a TGI (NCI-H226 lung) of 24.1 µM and a GI50 (NCI/ADR-RES ovarian) of 4.63 µM. For the same molecule, the TGI (NCI/ADR-RES ovarian) was 17 µM, the GI50 (786-0 renal) was 4.97 µM and the TGI (786-0 renal) was 17.4 µM. The GI50 (EKVX NSCLC) was 1.88 µM, the TGI (EKVX NSCLC) was 13.6 µM and the GI50 (HL-60(TB) leukemia) was 7.84 µM. The TGI (HL-60(TB) leukemia) was 20.8 µM, the GI50 (SNB-19 CNS) was 12.4 µM and the TGI (SNB-19 CNS) was 24.9 µM. The GI50 (A498 renal) was 6.97 µM, the TGI (A498 renal) was 19.3 µM and the GI50 (SN12C renal) was 5.71 µM. It also gave a TGI (SN12C renal) of 19.2 µM, a GI50 (DU-145 prostate) of 5.6 µM and a TGI (DU-145 prostate) of 17.6 µM. It also gave a GI50 (SK-OV-3 ovarian) of 7.75 µM, a TGI (SK-OV-3 ovarian) of 20.6 µM and a GI50 (HS 578T breast) of 3.45 µM. For the same molecule, the TGI (HS 578T breast) was 20 µM, the GI50 (NCI-H522 lung) was 6.24 µM and the TGI (NCI-H522 lung) was 21.6 µM. For the same molecule, the GI50 (MALME-3M melanoma) was 14.8 µM, the TGI (MALME-3M melanoma) was 35.2 µM and the GI50 (A549 NSCLC) was 5.91 µM. It also gave a TGI (A549 NSCLC) of 22.5 µM, a GI50 (SK-MEL-2 melanoma) of 11.9 µM and a TGI (SK-MEL-2 melanoma) of 27.6 µM. For the same molecule, the GI50 (HCT-15 colon) was 5.48 µM, the TGI (HCT-15 colon) was 20.8 µM and the GI50 (NCI-H460 lung) was 2.53 µM. It also gave a TGI (NCI-H460 lung) of 7.24 µM, a GI50 (CAKI-1 renal) of 4.38 µM and a TGI (CAKI-1 renal) of 18.2 µM. It also gave a GI50 (SW-620 colon) of 3.72 µM, a TGI (SW-620 colon) of 15.2 µM and a GI50 (HCT-116 colon) of 3.47 µM. For the same molecule, the TGI (HCT-116 colon) was 12.9 µM, the GI50 (LOX IMVI melanoma) was 2.34 µM and the TGI (LOX IMVI melanoma) was 6.98 µM. The GI50 (T-47D breast) was 2.93 µM, the TGI (T-47D breast) was 14.9 µM and the GI50 (SNB-75 CNS) was 10.9 µM. The TGI (SNB-75 CNS) was 23.7 µM, the GI50 (RXF 393 renal) was 5.83 µM and the TGI (RXF 393 renal) was 21.1 µM. It also gave a GI50 (HCC-2998 colon) of 6.48 µM, a TGI (HCC-2998 colon) of 19.1 µM and a GI50 (HOP-92 NSCLC) of 3.74 µM. For the same molecule, the TGI (HOP-92 NSCLC) was 17.6 µM, the GI50 (ACHN renal) was 3.7 µM and the TGI (ACHN renal) was 14.4 µM. It also gave a GI50 (U251 CNS) of 3.34 µM, a TGI (U251 CNS) of 13.5 µM and a GI50 (SK-MEL-5 melanoma) of 9.59 µM. The TGI (SK-MEL-5 melanoma) was 21.4 µM, the GI50 (NCI-H23 lung) was 5.82 µM and the TGI (NCI-H23 lung) was 19.9 µM. The GI50 (RPMI-8226 leukemia) was 3.99 µM, the TGI (RPMI-8226 leukemia) was 17.8 µM and the GI50 (OVCAR-3 ovarian) was 4.21 µM. The TGI (OVCAR-3 ovarian) was 15.7 µM, the GI50 (MCF7 breast) was 2.01 µM and the TGI (MCF7 breast) was 10.5 µM. It also gave a GI50 (MDA-MB-231 breast) of 2.34 µM, a TGI (MDA-MB-231 breast) of 11.8 µM and a GI50 (SK-MEL-28 melanoma) of 11.7 µM. The TGI (SK-MEL-28 melanoma) was 23.9 µM, the GI50 (CCRF-CEM leukemia) was 3.64 µM and the TGI (CCRF-CEM leukemia) was 13.5 µM. It also gave a GI50 (OVCAR-5 ovarian) of 12.3 µM, a TGI (OVCAR-5 ovarian) of 24.7 µM and a GI50 (TK-10 renal) of 4.48 µM. The TGI (TK-10 renal) was 18.8 µM, the GI50 (IGROV1 ovarian) was 6.19 µM and the TGI (IGROV1 ovarian) was 22.3 µM. The GI50 (SF-539 CNS) was 12.3 µM, the TGI (SF-539 CNS) was 24.7 µM and the GI50 (PC-3 prostate) was 4.44 µM. The TGI (PC-3 prostate) was 16.8 µM, the GI50 (SF-268 CNS) was 5.76 µM and the TGI (SF-268 CNS) was 19.4 µM. It also gave a GI50 (SR leukemia) of 1.28 µM, a TGI (SR leukemia) of 5.02 µM and a GI50 (OVCAR-8 ovarian) of 5.75 µM. For the same molecule, the TGI (OVCAR-8 ovarian) was 21.6 µM, the GI50 (COLO 205 colon) was 1.69 µM and the TGI (COLO 205 colon) was 3.31 µM. It also gave a GI50 (UO-31 renal) of 3.78 µM, a TGI (UO-31 renal) of 19.2 µM and a GI50 (M14 melanoma) of 2.62 µM. For the same molecule, the TGI (M14 melanoma) was 10.4 µM, the GI50 (MDA-MB-435) was 3.57 µM and the TGI (MDA-MB-435) was 14.8 µM. The GI50 (BT-549 breast) was 13.1 µM, the TGI (BT-549 breast) was 27.7 µM and the GI50 (K-562 leukemia) was 2.24 µM. It also gave a TGI (K-562 leukemia) of 11.5 µM, a GI50 (HT29 colon) of 3.3 µM and a TGI (HT29 colon) of 11 µM. For the same molecule, the GI50 (MOLT-4 leukemia) was 1.94 µM, the TGI (MOLT-4 leukemia) was 7.25 µM and the GI50 (SF-295 CNS) was 16 µM. It also gave a TGI (SF-295 CNS) of 31.6 µM, a GI50 (UACC-62 melanoma) of 3.49 µM and a TGI (UACC-62 melanoma) of 15.1 µM. The GI50 (KM12 colon) was 2.8 µM, the TGI (KM12 colon) was 10.6 µM and the GI50 (OVCAR-4 ovarian) was 7.69 µM. It also gave a TGI (OVCAR-4 ovarian) of 21.2 µM, a GI50 (HOP-62 NSCLC) of 10.4 µM and a TGI (HOP-62 NSCLC) of 23.3 µM. The GI50 (UACC-257 melanoma) was 11.9 µM and the TGI (UACC-257 melanoma) was 26.8 µM.
